Source: patent publication US20110165173A1, “THERAPEUTIC AGENT AND DETECTION REAGENT FOR ARTERIOSCLEROTIC DISEASE WHICH TARGETS FOR SALUSIN” (PROTEINEXPRESS CO., LTD., priority 2007, published 2011)

What was measured:
Type in all cases: in vivo
SR-BI = SR-BI expression by macrophages of treated apoE-deficient mice (Western blotting); conditions: 0.6 nmol/kg/h, four weeks; range given jointly for ABCA1, ABCG1, SR-BI; P<0.05
Experimental: (§1) 13-week-old male apoE-deficient mice (72 mice) were divided into the following 6 groups: (i) physiological salt saline (control); (ii) salusin-α (0.6 nmol/kg/h); (iii) salusin-β (0.6 nmol/kg/h); (iv) salusin-α (0.6 nmol/kg/h)+anti-salusin-α serum (1.4 μg/kg/h); (v) salusin-β (0.6 nmol/kg/h)+anti-salusin-β serum (1.4 μg/kg/h); and (vi) anti-salusin-β serum (1.4 μg/kg/h). The mice were subjected to continuous subcutaneous administration with the use of an osmotic mini-pump for 4 to 8 weeks. The osmotic mini-pump and the solution contained therein were changed every week.
(§2) Macrophages were collected as in the experiment in (1), and the protein expression of the gene involved in foaming of macrophages (i.e., scavenger receptors CD36 and SR-A capable of recognizing oxidized LDL, intracellular cholesterol esterification enzyme ACAT1, and ABCA1, ABCG1, and SR-BI, which are involved in cholesterol efflux) was analyzed by Western blotting. For the internal standard of the macrophage function, β-actin expression was also examined. For quantification of the band concentration, Analyzer (ATTO Corporation, Tokyo) was used.

[1] = system: macrophages of apoE-deficient mice; test: Cholesterol efflux caused by HDL in macrophages collected from treated apoE-deficient mice; conditions: 0.6 nmol/kg/h, four weeks; P<0.01
Experimental: as §1
Macrophages collected in the above manner were kept warm for 24 hours in a culture solution prepared as above containing oxidized LDL (10 μg/ml) labeled with [^3H]cholesterol (74 kBq/mL) and washed twice with PBS. Thereafter, the macrophages were kept warm for 16 hours in an RPMI1640 solution containing 0.1% BSA to which HDL (15 μg/mL) had been added. The culture solution was centrifuged at 15,000 rpm for 10 minutes so as to remove the residues therefrom. […] The radioactivity of [^3H]cholesterol in the culture solution and that in the cell extraction solution were assayed: cholesterol efflux (%)=the radioactivity of [^3H]cholesterol in the culture solution/the radioactivity of [^3H]cholesterol in the culture solution+the radioactivity of [^3H]cholesterol in the cell extraction solution×100

ABCA1 = ABCA1 expression by macrophages of treated apoE-deficient mice (Western blotting); conditions: 0.6 nmol/kg/h, four weeks; range given jointly for ABCA1, ABCG1, SR-BI; P<0.05
Experimental: as §1, §2

ABCG1 = ABCG1 expression by macrophages of treated apoE-deficient mice (Western blotting); conditions: 0.6 nmol/kg/h, four weeks; range given jointly for ABCA1, ABCG1, SR-BI; P<0.05
Experimental: as §1, §2

Substance: salusin-α: peptide (SEQ ID NO: 1) comprising 28 amino acid residues, generated by processing from preprosalusin (SGALPPAPAAPRPALRAQRAGPAGPGAK; listed as Homo sapiens)
- SR-BI protein expression relative to initial level (SR-BI): 1.5 to 2 times
- cholesterol efflux caused by HDL relative to control [1]: approximately 2 times
- ABCA1 protein expression relative to initial level (ABCA1): 1.5 to 2 times
- ABCG1 protein expression relative to initial level (ABCG1): 1.5 to 2 times
